Assay results from patent US20060069132A1, “Azolecarboxamide herbicides” (priority 2004, published 2006).

How the values were obtained:
[1] = tested on: wild oat; assay: Test B postemergence herbicide test; format: in vivo, Avena fatua; conditions: postemergence, visual rating, scale 0 (no effect) to 100 (complete control)
Summary of the method: (§1)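 After treating 2-leaf paddy plants or 2–18 cm postemergence plants (1 to 4 leaves) with formulated chemical, researchers kept them in a greenhouse for 13–15 days. Effects were judged visually versus controls: 0 indicates none, 100 total control.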

[2] = tested on: lambsquarters; assay: Test B pre-/postemergence herbicide test; format: in vivo, Chenopodium album; conditions: for Plant response rating, Lambsquarters: preemergence; for Lambsquarters plant response rating: postemergence, visual rating, scale 0 (no effect) to 100 (complete control)
Summary of the method: (§2)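 Plants compared with untreated controls 13–15 days post-treatment and given a visual 0–100 injury score. Applications: preemergence to seeds; postemergence at 1- to 4-leaf (2–18 cm); paddy species flooded, 2-leaf stage. Vehicle non-phytotoxic, surfactant included.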

[3] = tested on: pigweed; assay: Test B pre-/postemergence herbicide test; format: in vivo, Amaranthus retroflexus; conditions: for Plant response rating, Pigweed: preemergence; for Pigweed plant response rating: postemergence, visual rating, scale 0 (no effect) to 100 (complete control)
Summary of the method: as §2

[4] = tested on: morningglory; assay: Test B pre-/postemergence herbicide test; format: in vivo, Ipomoea coccinea; conditions: for Plant response rating, Morningglory: preemergence; for Morningglory plant response rating: postemergence, visual rating, scale 0 (no effect) to 100 (complete control)
Summary of the method: (§3)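 Visual rating, 0 (no effect) to 100 (complete control), versus untreated controls after 13–15 d in greenhouse. Pre- and postemergence applications (postemergence plants 2–18 cm, 1–4 leaves); flooded paddy arm at 2-leaf stage. Compounds in non-phytotoxic solvent plus surfactant.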

[5] = tested on: cocklebur; assay: Test B pre-/postemergence herbicide test; format: in vivo, Xanthium strumarium; conditions: for Plant response rating, Cocklebur: preemergence; for Cocklebur plant response rating: postemergence, visual rating, scale 0 (no effect) to 100 (complete control)
Summary of the method: as §3

[6] = tested on: large crabgrass; assay: Test B pre-/postemergence herbicide test; format: in vivo, Digitaria sanguinalis; conditions: for Plant response rating, Crabgrass, Large: preemergence; for Crabgrass, Large plant response rating: postemergence, visual rating, scale 0 (no effect) to 100 (complete control)
Summary of the method: as §2

[7] = tested on: rice; assay: Test B flooded paddy test; format: in vivo, Oryza sativa; conditions: 1000 g ai/ha, visual rating, scale 0 to 100 (0 no effect, 100 complete control), 13 to 15 days
Summary of the method: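 Formulated test chemicals went onto postemergence plants measuring 2 to 18 cm, at one to four leaves. For the paddy assay, species had reached two leaves. Scoring took place 13–15 days later by eye, relative to untreated plants, using 0 for no effect up to 100 for full control.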

[8] = tested on: wheat; assay: Test B postemergence herbicide test; format: in vivo, Triticum aestivum; set-up: key to Wheat plant response rating: 0 = no effect, 100 = complete control; conditions: postemergence, visual rating, scale 0 (no effect) to 100 (complete control)
Summary of the method: as §1

[9] = tested on: small flower umbrella sedge; assay: Test B flooded paddy test; format: in vivo, Cyperus difformis; conditions: 1000 g ai/ha, visual rating, scale 0 to 100 (0 no effect, 100 complete control), 13 to 15 days
Summary of the method: (§4)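 Visual ratings, 0 (no effect) to 100 (complete control), made versus controls after 13–15 d greenhouse. Paddy plants treated at 2-leaf stage; postemergence plants at 1- to 4-leaf stage, 2–18 cm tall.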

[10] = tested on: giant foxtail; assay: Test B pre-/postemergence herbicide test; format: in vivo, Setaria faberi; conditions: for Plant response rating, Foxtail, Giant: preemergence; for Foxtail, Giant plant response rating: postemergence, visual rating, scale 0 (no effect) to 100 (complete control)
Summary of the method: as §2

[11] = tested on: ducksalad; assay: Test B flooded paddy test; format: in vivo, Heteranthera limosa; conditions: 1000 g ai/ha, visual rating, scale 0 to 100 (0 no effect, 100 complete control), 13 to 15 days
Summary of the method: as §4

[12] = tested on: corn; assay: Test B pre-/postemergence herbicide test; format: in vivo, Zea mays; conditions: for Plant response rating, Corn: preemergence; for Corn plant response rating: postemergence, visual rating, scale 0 (no effect) to 100 (complete control)
Summary of the method: as §2

[13] = tested on: Surinam grass; assay: Test B pre-/postemergence herbicide test; format: in vivo, Urochloa decumbens; conditions: for Plant response rating, Surinam Grass: preemergence; for Surinam Grass plant response rating: postemergence, visual rating, scale 0 (no effect) to 100 (complete control)
Summary of the method: as §2

[14] = tested on: blackgrass; assay: Test B postemergence herbicide test; format: in vivo, Alopecurus myosuroides; conditions: postemergence, visual rating, scale 0 (no effect) to 100 (complete control)
Summary of the method: as §4

[15] = tested on: barnyardgrass; assay: Test B flooded paddy test; format: in vivo, Echinochloa crus-galli; conditions: 1000 g ai/ha, visual rating, scale 0 to 100 (0 no effect, 100 complete control), 13 to 15 days
Summary of the method: as §4

[16] = tested on: barnyardgrass; assay: Test B pre-/postemergence herbicide test; format: in vivo, Echinochloa crus-galli; conditions: for Plant response rating, Barnyardgrass: preemergence; for Barnyardgrass plant response rating: postemergence, visual rating, scale 0 (no effect) to 100 (complete control)
Summary of the method: as §3

[17] = 500 g ai/ha, visual rating 0-100, 0 no effect, 100 complete control
[18] = 125 g ai/ha, 0 to 100 scale, 0 is no effect, 100 is complete control

SMILES: CCn1nc(C(C)(C)C)cc1C(=O)Nc1cccc(SC)c1 [Compound 131]
- Oat, Wild plant response rating ([1]; 125 g ai/ha): 20
- Oat, Wild plant response rating ([1]; 500 g ai/ha): 20
- Plant response rating, Lambsquarters [2, 17]: 100
- Lambsquarters plant response rating ([2]; 125 g ai/ha): 80
- Lambsquarters plant response rating ([2]; 500 g ai/ha): 90
- Plant response rating, Lambsquarters [2, 18]: 100
- Plant response rating, Pigweed [3, 17]: 100
- Pigweed plant response rating ([3]; 125 g ai/ha): 30
- Pigweed plant response rating ([3]; 500 g ai/ha): 60
- Plant response rating, Pigweed [3, 18]: 100
- Plant response rating, Morningglory [4, 17]: 30
- Morningglory plant response rating ([4]; 125 g ai/ha): 20
- Morningglory plant response rating ([4]; 500 g ai/ha): 60
- Plant response rating, Morningglory [4, 18]: 10
- Plant response rating, Cocklebur [5, 17]: 10
- Cocklebur plant response rating ([5]; 125 g ai/ha): 70
- Cocklebur plant response rating ([5]; 500 g ai/ha): 100
- Plant response rating, Cocklebur [5, 18]: 0
- Plant response rating, Crabgrass, Large [6, 17]: 100
- Crabgrass, Large plant response rating ([6]; 125 g ai/ha): 20
- Crabgrass, Large plant response rating ([6]; 500 g ai/ha): 30
- Plant response rating, Crabgrass, Large [6, 18]: 50
- Rice plant response rating [7]: 60
- Wheat plant response rating ([8]; 125 g ai/ha): 10
- Wheat plant response rating ([8]; 500 g ai/ha): 20
- Sedge, Umbrella plant response rating [9]: 80
- Plant response rating, Foxtail, Giant [10, 17]: 70
- Foxtail, Giant plant response rating ([10]; 125 g ai/ha): 20
- Foxtail, Giant plant response rating ([10]; 500 g ai/ha): 30
- Plant response rating, Foxtail, Giant [10, 18]: 10
- Ducksalad plant response rating [11]: 80
- Plant response rating, Corn [12, 17]: 0
- Corn plant response rating ([12]; 125 g ai/ha): 20
- Corn plant response rating ([12]; 500 g ai/ha): 20
- Plant response rating, Corn [12, 18]: 0
- Plant response rating, Surinam Grass [13, 17]: 60
- Surinam Grass plant response rating ([13]; 125 g ai/ha): 20
- Surinam Grass plant response rating ([13]; 500 g ai/ha): 60
- Plant response rating, Surinam Grass [13, 18]: 10
- Blackgrass plant response rating ([14]; 125 g ai/ha): 10
- Blackgrass plant response rating ([14]; 500 g ai/ha): 20
- Barnyardgrass plant response rating [15]: 70
- Plant response rating, Barnyardgrass [16, 17]: 90
- Barnyardgrass plant response rating ([16]; 125 g ai/ha): 10
- Barnyardgrass plant response rating ([16]; 500 g ai/ha): 50
- Plant response rating, Barnyardgrass [16, 18]: 70

SMILES: CCn1nc(C(C)(C)C)cc1C(=O)Nc1cccc(C(N)=O)n1 [Compound 162, 6-[[[3-(1,1-dimethylethyl)-1-ethyl-1H-pyrazol-5-yl]carbonyl]amino]-2-pyridinecarboxamide]
- Oat, Wild plant response rating ([1]; 125 g ai/ha): 20
- Oat, Wild plant response rating ([1]; 500 g ai/ha): 40
- Plant response rating, Lambsquarters [2, 17]: 100
- Lambsquarters plant response rating ([2]; 125 g ai/ha): 80
- Lambsquarters plant response rating ([2]; 500 g ai/ha): 90
- Plant response rating, Lambsquarters [2, 18]: 100
- Plant response rating, Pigweed [3, 17]: 100
- Pigweed plant response rating ([3]; 125 g ai/ha): 40
- Pigweed plant response rating ([3]; 500 g ai/ha): 80
- Plant response rating, Pigweed [3, 18]: 100
- Plant response rating, Morningglory [4, 17]: 80
- Morningglory plant response rating ([4]; 125 g ai/ha): 0
- Morningglory plant response rating ([4]; 500 g ai/ha): 60
- Plant response rating, Morningglory [4, 18]: 20
- Plant response rating, Cocklebur [5, 17]: 90
- Cocklebur plant response rating ([5]; 125 g ai/ha): 10
- Cocklebur plant response rating ([5]; 500 g ai/ha): 60
- Plant response rating, Cocklebur [5, 18]: 30
- Plant response rating, Crabgrass, Large [6, 17]: 100
- Crabgrass, Large plant response rating ([6]; 125 g ai/ha): 20
- Crabgrass, Large plant response rating ([6]; 500 g ai/ha): 40
- Plant response rating, Crabgrass, Large [6, 18]: 100
- Rice plant response rating [7]: 80
- Wheat plant response rating ([8]; 500 g ai/ha): 10
- Sedge, Umbrella plant response rating [9]: 80
- Plant response rating, Foxtail, Giant [10, 17]: 100
- Foxtail, Giant plant response rating ([10]; 125 g ai/ha): 20
- Foxtail, Giant plant response rating ([10]; 500 g ai/ha): 30
- Plant response rating, Foxtail, Giant [10, 18]: 100
- Ducksalad plant response rating [11]: 80
- Plant response rating, Corn [12, 17]: 80
- Corn plant response rating ([12]; 125 g ai/ha): 0
- Corn plant response rating ([12]; 500 g ai/ha): 0
- Plant response rating, Corn [12, 18]: 30
- Plant response rating, Surinam Grass [13, 17]: 100
- Surinam Grass plant response rating ([13]; 125 g ai/ha): 0
- Surinam Grass plant response rating ([13]; 500 g ai/ha): 40
- Plant response rating, Surinam Grass [13, 18]: 90
- Blackgrass plant response rating ([14]; 125 g ai/ha): 20
- Blackgrass plant response rating ([14]; 500 g ai/ha): 50
- Barnyardgrass plant response rating [15]: 80
- Plant response rating, Barnyardgrass [16, 17]: 100
- Barnyardgrass plant response rating ([16]; 125 g ai/ha): 0
- Barnyardgrass plant response rating ([16]; 500 g ai/ha): 30
- Plant response rating, Barnyardgrass [16, 18]: 100
